# Reference: patent publication US6682718B1, “Remedies for periodontosis” (Yamanouchi Pharmaceutical Co., Ltd., priority 1999, dated 2004)
# “Also recorded” adds a separate entry of the source. Read-outs that look alike come from different tables or passages of the source.
# Assays:
# [1] = test system: monkey periodontitis model; conditions: oral administration; cited from earlier work
# dog periodontitis model = conditions: oral administration; cited from earlier work
# [2] = test system: lamina propria mucosae of the administered sites; assay: Local irritation to the lamina propria mucosae of the administered sites (Comparative Example 1); assay type: in vivo, beagle dog
# Description: (§1) Using 26 animals of beagle dog (3 to 6 years, body weight at the time of grouping 6.1 to 12.9 kg), topical administration study in a canine periodontitis model were carried out on a), control group: physiological saline, b) incadronate […] group and c) incadronate 150 μg/site group.
# [3] = Alveolar bone drug concentration in rat tooth movement model; assay type: in vivo; conditions: 10 μg/50 μl/kg group
# [4] = Intra-alveolar bone drug concentration, high dose topical study (Comparative Example 1); assay type: in vivo; conditions: beagle, dog, read-out: Intra-alveolar bone concentration of incadronate
# Description: as §1
# [5] = test system: canine periodontitis model; conditions: oral administration; cited from earlier work
# [6] = Intra-alveolar bone and intra-rib drug concentration, canine periodontitis model (Example 1); conditions: for Intra-rib drug concentration: 13 weeks after final administration; for concentration at 13 weeks after final administration: female, beagle, dog, other: alveolar mucosa injection
# Description: A total of 30 animals of female beagle dogs (1 to 2 years, body weight at the time of grouping 7.9 to 13.7 kg) were fed with a soft diet prepared by impregnating Gains Packen (AGF) with water from the previous day of ligation and used in this study. Under anesthesia with xylazine hydrochloride (Bayer) and pentobarbital, gingiva between second premolar (hereinafter, P2)/third premolar (hereinafter, P3), between P3/fourth premolar (hereinafter, P4) and between P4/first molar (hereinafter, M1) of right and left mandibles were incised with a surgical knife, and periodontal pockets were prepared around P3 and P4 using a periosteal elevator. An experimental periodontitis was induced by placing double-ligation of silk threads (surgical thread; Nescosuture (3-0), Morita) around the cervices of P3 and P4. In this case, reference points were prepared on the buccal side and lingual side of the crown of P4 at the height of gingival margin using dental drill. […] 1) Control group: physiological saline, 2) incadronate […] group, 3) incadronate 1.5 μg/site group, 4) incadronate 5.0 μg/site group and 5) incadronate 15 μg/site group.
# The administration was started just after the surgical operation in each group. Incadronate (an injection, mfd. by Yamanouchi Pharmaceutical Co., Ltd.) was prepared and diluted with saline such that the administration liquid volume became 150 μl/site. The administration was carried out a total of three times, namely just after the ligation and 1 and 2 weeks after the ligation. The administration was carried out by the alveolar mucosa injection method using a 27 G injection needle attached to a glass micro-syringe. The injection needle was inserted horizontally to the alveolar mucosa close to the boundary between the alveolar mucosa and gingiva (muco-gingival junction) around the ligated tooth, and 150 μl of a drug solution was injected between periosteum of the alveolar bone and alveolar mucosa. The administration was carried out on both of the buccal and lingual side (a total of 4 sites per 1 mandible, 600 μl in total). Each animal was sacrificed by exsanguination 13 weeks after the final administration, and the mandibles including P3 and P4 of right and left side and the ribs were harvested and submitted to the intra-bone drug concentration measurement.
# Root of the left fourth premolar was extracted using cutting pliers, the whole mandible containing jaw bone and alveolar bone was divided up and down into two, and the upper ½ was considered as the alveolar bone. […] Incadronate was extracted from these samples using a calcium precipitation method and its intra-bone drug concentration was measured by an HPLC method.
# [7] = test system: hamster periodontitis model; conditions: subcutaneous administration; cited from earlier work
# [8] = Alveolar bone drug concentration after oral administration in canine periodontitis model; assay type: in vivo; conditions: dog, oral 1.0 mg/kg, at completion of 26 weeks administration
# Description: Thereafter, it was confirmed that the drug concentration in the alveolar bone is about 4 μg/g in that case.
# Intra-alveolar bone concentration of incadronate was 5.67 and 4.28 μg/g bone. This was similar to the intra-alveolar bone drug concentration of about 4 μg/g at the time of the completion of 26 weeks oral administration of 1.0 mg/kg of incadronate (J. Periodont. Res., 33, 196-204 (1998)).
# [9] = test system: experimental periodontitis induced by silk thread ligation of P3 and P4; assay: Canine periodontitis model study, topical alveolar mucosa injection (Example 1): alveolar bone loss and clinical scores; assay type: in vivo, beagle dogs
# Description: The standardized X-ray photographing method (J. Periodontol., 33, 164-171 (1962)) was employed, in which irradiation direction of X-ray to a subject and position of the film are always kept constant so that X-ray photographs of the same region of the same individual can be obtained repeatedly always under the same conditions. This time, in order to evaluate alveolar bone loss around P3 and P4 of right and left mandibles, a cap was formed between incisor tooth and M1 of both mandibles using an acrylic resin, and a fixing device was prepared by combining this cap with a film holder.
# Each animal was anesthetized with xylazine hydrochloride and ketamine hydrochloride (Ketalar, Sankyo), and a dental film (Ultra Speed DF58, Kodak) was attached to the film holder on the fixing device to photograph X-ray by a dental X-ray photographing apparatus (Super Max 70, type HD-1, Morita Seisakusho).
# That is, an X-ray film was measured under a stereoscopic microscope (objective×1, eyepiece×10), an OHP sheet was put on the X-ray film, and line a, line b and line c were marked on the OHP sheet using a ceramic knife, thereby obtaining respective two points b and b′ and c and c′ on line b and line c. Distances between the b-b′ and c-c′ were respectively defined as the distances from the reference points (b and c points) to the alveolar bone crest. The length of alveolar bone loss was expressed by averaging values obtained by subtracting the sum of b-b′ and c-c′ distances in each individual at the time of each week from the sum of b-b′ and c-c′ distances at the time of ligation.
# Measurement of the depth of periodontal pockets was carried out by a four point measuring method in accordance with J. Clin. Periodontol., 4, 173-190 (1997)).
# Regarding the length of gingival recession, the distance from the reference point on the tooth crown prepared at the time of ligation to the gingival margin was measured on two regions, the buccal and lingual side, of P4 at the time of each week in each individual, and expressed as the average value.
# Attachment level is an index for measuring position of the bottom of gingival sulcus (pocket bottom), and was expressed as the distance from the pocket bottom to the reference point on the tooth crown. That is, a value of the depth of pocket plus the length of gingival recession was used as the attachment level.
# Regions of inflammation and degree of the symptoms of gingiva were evaluated in accordance with J. Periodontol., 38, 602-610 (1967)).
# [10] = test system: experimental periodontitis (canine periodontitis model); assay: High dose topical administration study in canine periodontitis model (Comparative Example 1): alveolar bone loss and clinical scores; assay type: in vivo, beagle dog; conditions: 50 and 150 μg/site groups vs control, 3 topical injections
# Description: as §1
# [11] = test system: tooth movement model (tooth relapse); assay: Tooth movement model in rat, intra-gingival administration
# [12] = test system: rat molar experimental tooth movement models; conditions: cited from earlier work
smiles,measurement,setting,value
NCCCC(O)(P(=O)(O)O)P(=O)(O)O [alendronate],alveolar bone destruction,[1],inhibited alveolar bone destruction
same,alveolar bone destruction,dog periodontitis model,inhibited alveolar bone destruction
"O.O=P([O-])([O-])C(NC1CCCCCC1)P(=O)(O)O.[Na+].[Na+] [incadronate, disodium cycloheptylaminomethylenediphosphonate monohydrate]",local irritation to the lamina propria mucosae of the administered sites,[2]; 50 μg/site group,slight mononuclear cell infiltration was also observed partly
same,local irritation to the lamina propria mucosae of the administered sites,"[2]; 150 μg/site group, one week after the final administration, monohydrate","considerable local irritation was observed; also recorded: bleeding, fibrin precipitation, inflammatory cell infiltration, salivary gland and muscular tissue damage were observed in all cases"
same,average concentration in the alveolar bone,[3],0.6 µg/g
same,concentration at 8 weeks after final administration,[4]; 50 μg/site group (first value),5670 ng/g
same,concentration at 8 weeks after final administration,[4]; 150 μg/site group,4280 ng/g
same,alveolar bone loss and attachment level,[5],alveolar bone loss inhibitory and attachment level improving actions
same,alveolar bone resorption inhibitory action,[5],shows an alveolar bone resorption inhibitory action dose-dependently
same,suitable dose,[5],1.0 mg/kg
same,intra-rib concentration as fraction of the intra-alveolar bone concentration,[6]; 5 to 15 μg/site-administered groups,1/10
same,Intra-rib drug concentration,[6]; dose 0.5 μg/site,N.D. (N.D. indicates detection limit (0.025 μg/g) or less)
same,Intra-rib drug concentration,[6]; dose 1.5 μg/site,N.D. (N.D. indicates detection limit (0.025 μg/g) or less)
same,concentration at 13 weeks after final administration,"[6]; alveolar bone, 0.5 μg/site",58 ± 8 ng/g
same,concentration at 13 weeks after final administration,"[6]; alveolar bone, 1.5 μg/site",174 ± 11 ng/g
same,concentration at 13 weeks after final administration,"[6]; alveolar bone, 5 μg/site",356 ± 70 ng/g
same,concentration at 13 weeks after final administration,"[6]; alveolar bone, 15 μg/site",1040 ± 313 ng/g
same,concentration at 13 weeks after final administration,"[6]; rib (epiphyseal region), 5 μg/site",33 ± 3 ng/g
same,concentration at 13 weeks after final administration,"[6]; rib (epiphyseal region), 15 μg/site",91 ± 16 ng/g
same,alveolar bone loss,[7],alveolar bone loss inhibitory action
same,concentration at 26 weeks,[8],~4000 ng/g
same,acceleration of pocket depth,"[9]; 2 and 4 weeks after the ligation, dose of 1.5 μg/site or more",significantly inhibited
same,exacerbation of gingival index,"[9]; after 2 weeks of the ligation, dose of 1.5 μg/site or more",significantly inhibited
same,reduction of attachment level,"[9]; after 4 and 15 weeks of the ligation, dose of 1.5",significantly inhibited
same,dose at which alveolar bone loss inhibitory action was most potent,"[9]; doses 0.5, 1.5, 5.0, 15 μg/site tested",5 μg/site
same,reduction of attachment level,"[9]; in and after 2 weeks of the ligation, dose of 5 or more",significantly inhibited
same,acceleration of gingival recession,"[9]; in and after 4 weeks of the ligation, dose of 5 or more",significantly inhibited
same,aggravation of the clinical scores of periodontitis,[9]; incadronate-treated groups,inhibited
same,alveolar bone loss (standardized X-ray),"[9]; incadronate-treated groups 0.5-15 μg/site vs control, after ligation",inhibited
same,acceleration of gingival recession,"[9]; only after 15 weeks of the ligation, dose of 1.5",significantly inhibited
same,clinical scores,[10],no significant difference
same,alveolar bone loss inhibitory action,[10]; monohydrate,unable to exert alveolar bone resorption inhibitory action; also recorded: no significant difference
same,effect on tooth relapse,[11]; 10 μg/50 μl/kg intra-gingival (200 μg/ml),no effect
same,effect on tooth relapse,"[11]; 100 μg/50 μl/kg intra-gingival (2,000 μg/ml)",good tooth relapse inhibitory action
same,local irritation in gross observation,[11]; 10 or 100 μg/50 μl/kg intra-gingival,not observed
NCCC(O)(P(=O)(O)O)P(=O)(O)O [pamidronate],effect on experimental tooth movement,[12]; topical administration to sub-mucasa on palate-side,effective
O=P(O)(O)C(O)(Cc1cccnc1)P(=O)(O)O [risedronate],effect on experimental tooth movement,[12]; topical administration to the sub-periosteum area adjacent to the first molar,effective
